Measurements from PMC8330742, “New benzothieno[2,3-c]pyridines as non-steroidal CYP17 inhibitors: design, synthesis, anticancer screening, apoptosis induction, and in silico ADME profile studies” (Journal of Enzyme Inhibition and Medicinal Chemistry, 2021).

Columns and labels:
NCI-H23 = assay: NCI-60 SRB screen; assay type: cell-based, human; details: Homo sapiens; single dose 10^−5 M; NCI-H23, Non-small cell lung carcinoma; read-out: Growth inhibition (%)
UO-31 = assay: NCI-60 SRB screen; assay type: cell-based, human; details: Homo sapiens; single dose 10^−5 M; UO-31, Renal cancer; read-out: Growth inhibition (%)
OVCAR-3 = assay: NCI-60 SRB screen; assay type: cell-based, human; details: Homo sapiens; single dose 10^−5 M; OVCAR-3, Ovarian cancer; read-out: Growth inhibition (%)
HL-60(TB) = assay: NCI-60 SRB screen; assay type: cell-based, human; details: Homo sapiens; single dose 10^−5 M; HL-60(TB), Leukaemia; read-out: Growth inhibition (%)
OVCAR-8 = assay: NCI-60 SRB screen; assay type: cell-based, human; details: Homo sapiens; single dose 10^−5 M; OVCAR-8, Ovarian cancer; read-out: Growth inhibition (%)
HOP-92 = assay: NCI-60 SRB screen; assay type: cell-based, human; details: Homo sapiens; single dose 10^−5 M; HOP-92, Non-small cell lung carcinoma; read-out: Growth inhibition (%)
NCI-H522 = assay: NCI-60 SRB screen; assay type: cell-based, human; details: Homo sapiens; single dose 10^−5 M; NCI-H522, Non-small cell lung carcinoma; read-out: Growth inhibition (%)
NCI/ADR-RES = assay: NCI-60 SRB screen; assay type: cell-based, human; details: Homo sapiens, single dose 10^−5 M, Ovarian cancer, read-out: Growth inhibition (%)
HT-29 = assay: NCI-60 SRB screen; assay type: cell-based; details: Homo sapiens; single dose 10^−5 M; HT-29, Colon cancer; read-out: Growth inhibition (%)
COLO 205 = assay: NCI-60 SRB screen; assay type: cell-based, human; details: Homo sapiens; single dose 10^−5 M; COLO 205, Colon cancer; read-out: Growth inhibition (%)
OVCAR-4 = assay: NCI-60 SRB screen; assay type: cell-based, human; details: Homo sapiens; single dose 10^−5 M; OVCAR-4, Ovarian cancer; read-out: Growth inhibition (%)
A549/ATCC = assay: NCI-60 SRB screen; assay type: cell-based, human; details: Homo sapiens, single dose 10^−5 M, Non-small cell lung carcinoma, read-out: Growth inhibition (%)
EKVX = assay: NCI-60 SRB screen; assay type: cell-based, human; details: Homo sapiens, single dose 10^−5 M, Non-small cell lung carcinoma, read-out: Growth inhibition (%)
MDA-MB-435 = assay: NCI-60 SRB screen; assay type: cell-based; details: Homo sapiens, MDA-MB-435, read-out: Growth inhibition (%)
TK-10 = assay: NCI-60 SRB screen; assay type: cell-based, human; details: Homo sapiens; single dose 10^−5 M; TK-10, Renal cancer; read-out: Growth inhibition (%)
CCRF-CEM = assay: NCI-60 SRB screen; assay type: cell-based; details: Homo sapiens, single dose 10^−5 M, Leukaemia, read-out: Growth inhibition (%)
HCT-15 = assay: NCI-60 SRB screen; assay type: cell-based, human; details: Homo sapiens; single dose 10^−5 M; HCT-15, Colon cancer; read-out: Growth inhibition (%)
SW-620 = assay: NCI-60 SRB screen; assay type: cell-based; details: Homo sapiens; single dose 10^−5 M; SW-620, Colon cancer; read-out: Growth inhibition (%)
SK-MEL-2 = assay: NCI-60 SRB screen; assay type: cell-based, human; details: Homo sapiens; single dose 10^−5 M; SK-MEL-2, Melanoma; read-out: Growth inhibition (%)
SN12C = assay: NCI-60 SRB screen; assay type: cell-based, human; details: Homo sapiens, SN12C; single dose 10^−5 M; SN 12 C, Renal cancer; read-out: Growth inhibition (%)
HCC-2998 = assay: NCI-60 SRB screen; assay type: cell-based, human; details: Homo sapiens; single dose 10^−5 M; HCC-2998, Colon cancer; read-out: Growth inhibition (%)
NCI-H460 = assay: NCI-60 SRB screen; assay type: cell-based, human; details: Homo sapiens; single dose 10^−5 M; NCI-H460, Non-small cell lung carcinoma; read-out: Growth inhibition (%)
SF-295 = assay: NCI-60 SRB screen; assay type: cell-based, human; details: Homo sapiens; single dose 10^−5 M; SF-295, CNS cancer; read-out: Growth inhibition (%)
SF-268 = assay: NCI-60 SRB screen; assay type: cell-based, human; details: Homo sapiens; single dose 10^−5 M; SF-268, CNS cancer; read-out: Growth inhibition (%)
K-562 = assay: NCI-60 SRB screen; assay type: cell-based, human; details: Homo sapiens, K562; single dose 10^−5 M; K-562, Leukaemia; read-out: Growth inhibition (%)
SK-MEL-5 = assay: NCI-60 SRB screen; assay type: cell-based, human; details: Homo sapiens; single dose 10^−5 M; SK-MEL-5, Melanoma; read-out: Growth inhibition (%)
RXF 393 = assay: NCI-60 SRB screen; assay type: cell-based, human; details: Homo sapiens; single dose 10^−5 M; RXF 393, Renal cancer; read-out: Growth inhibition (%)
KM12 = assay: NCI-60 SRB screen; assay type: cell-based, human; details: Homo sapiens; single dose 10^−5 M; KM12, Colon cancer; read-out: Growth inhibition (%)
LOX IMVI = assay: NCI-60 SRB screen; assay type: cell-based, human; details: Homo sapiens, single dose 10^−5 M, Melanoma, read-out: Growth inhibition (%)
IGROV1 = assay: NCI-60 SRB screen; assay type: cell-based, human; details: Homo sapiens, IGROV-1; single dose 10^−5 M; IGROV1, Ovarian cancer; read-out: Growth inhibition (%)
ACHN = assay: NCI-60 SRB screen; assay type: cell-based; details: Homo sapiens, single dose 10^−5 M, Renal cancer, read-out: Growth inhibition (%)
SK-MEL-28 = assay: NCI-60 SRB screen; assay type: cell-based; details: Homo sapiens; single dose 10^−5 M; SK-MEL-28, Melanoma; read-out: Growth inhibition (%)
NCI-H226 = assay: NCI-60 SRB screen; assay type: cell-based, human; details: Homo sapiens; single dose 10^−5 M; NCI-H226, Non-small cell lung carcinoma; read-out: Growth inhibition (%)
MOLT-4 = assay: NCI-60 SRB screen; assay type: cell-based; details: Homo sapiens; single dose 10^−5 M; MOLT-4, Leukaemia; read-out: Growth inhibition (%)
SK-OV-3 = assay: NCI-60 SRB screen; assay type: cell-based, human; details: Homo sapiens; single dose 10^−5 M; SK-OV-3, Ovarian cancer; read-out: Growth inhibition (%)
UACC-62 = assay: NCI-60 SRB screen; assay type: cell-based, human; details: Homo sapiens; single dose 10^−5 M; UACC-62, Melanoma; read-out: Growth inhibition (%)
MALME-3M = assay: NCI-60 SRB screen; assay type: cell-based, human; details: Homo sapiens, single dose 10^−5 M, Melanoma, read-out: Growth inhibition (%)
HCT-116 = assay: NCI-60 SRB screen; assay type: cell-based, human; details: Homo sapiens; single dose 10^−5 M; HCT-116, Colon cancer; read-out: Growth inhibition (%)
CAKI-1 = assay: NCI-60 SRB screen; assay type: cell-based, human; details: Homo sapiens; single dose 10^−5 M; CAKI-1, Renal cancer; read-out: Growth inhibition (%)
[1] = tested on: panel of 60 cancer cell lines; assay: NCI-60 SRB screen, mean or range over the panel; assay type: cell-based, human; details: Homo sapiens; mean over the cell lines; single dose 10^−5 M; read-out: Mean growth inhibition (%)
NCI-H322M = assay: NCI-60 SRB screen; assay type: cell-based, human; details: Homo sapiens, single dose 10^−5 M, Non-small cell lung carcinoma, read-out: Growth inhibition (%)
SR = assay: NCI-60 SRB screen; assay type: cell-based; details: Homo sapiens, single dose 10^−5 M, Leukaemia, read-out: Growth inhibition (%)
HOP-62 = assay: NCI-60 SRB screen; assay type: cell-based, human; details: Homo sapiens; single dose 10^−5 M; HOP-62, Non-small cell lung carcinoma; read-out: Growth inhibition (%)
M14 = assay: NCI-60 SRB screen; assay type: cell-based, human; details: Homo sapiens; single dose 10^−5 M; M14, Melanoma; read-out: Growth inhibition (%)

## O=[N+]([O-])c1cccc(C2NC3=C(Nc4ccccc4N3)c3c2sc2c(F)cccc32)c1 (stereo not shown) [Compound 9, 9-Fluoro-7-(3-nitrophenyl)-5,6,7,13-tetrahydro[1]benzothieno[3′,2′:4,5]-pyrido[2,3-b]quinoxaline]
NCI-H23
  inhibition at 10 µM: 0.22%
UO-31
  inhibition at 10 µM: 36.1%
OVCAR-3
  inhibition at 10 µM: -3.93%
HL-60(TB)
  inhibition at 10 µM: -3.65%
OVCAR-8
  inhibition at 10 µM: -3.4%
HOP-92
  inhibition at 10 µM: -1.53%
NCI-H522
  inhibition at 10 µM: 4.63%
NCI/ADR-RES
  inhibition at 10 µM: -6.5%
HT-29
  inhibition at 10 µM: -5.27%
COLO 205
  inhibition at 10 µM: -17.1%
OVCAR-4
  inhibition at 10 µM: -2.74%
A549/ATCC
  inhibition at 10 µM: -2.98%
EKVX
  inhibition at 10 µM: 4.82%
MDA-MB-435
  inhibition at 10 µM: -7%
TK-10
  inhibition at 10 µM: -54.7%
CCRF-CEM
  inhibition at 10 µM: -1.14%
HCT-15
  inhibition at 10 µM: -4.08%
SW-620
  inhibition at 10 µM: 2%
SK-MEL-2
  inhibition at 10 µM: 3.87%
SN12C
  inhibition at 10 µM: 1.71%
HCC-2998
  inhibition at 10 µM: -17.5%
NCI-H460
  inhibition at 10 µM: 1.16%
SF-295
  inhibition at 10 µM: -7.1%
SF-268
  inhibition at 10 µM: 7.06%
K-562
  inhibition at 10 µM: 16.6%
SK-MEL-5
  inhibition at 10 µM: -22%
RXF 393
  inhibition at 10 µM: -15.3%
KM12
  inhibition at 10 µM: -0.46%
LOX IMVI
  inhibition at 10 µM: 3.13%
IGROV1
  inhibition at 10 µM: 24.2%
ACHN
  inhibition at 10 µM: 15.5%
SK-MEL-28
  inhibition at 10 µM: -7.98%
NCI-H226
  inhibition at 10 µM: 10.4%
MOLT-4
  inhibition at 10 µM: -1.99%
SK-OV-3
  inhibition at 10 µM: -1.7%
UACC-62
  inhibition at 10 µM: 11.5%
MALME-3M
  inhibition at 10 µM: -7.56%
HCT-116
  inhibition at 10 µM: -1.05%
CAKI-1
  inhibition at 10 µM: 28.3%
[1]
  inhibition at 10 µM: 7.87%
NCI-H322M
  inhibition at 10 µM: -1.56%
SR
  inhibition at 10 µM: 16.5%
HOP-62
  inhibition at 10 µM: 9.45%
M14
  inhibition at 10 µM: 1.33%

## N#CC1=C(Nc2ccccc2F)NC(c2cccc([N+](=O)[O-])c2)c2sc3c(F)cccc3c21 (stereo not shown) [Compound 10, 4-Cyano-8-fluoro-3((2-fluorophenyl)amino)-1–(3-nitrophenyl)-1,2-dihydro[1]benzothieno[2,3-c]pyridine]
NCI-H23
  inhibition at 10 µM: -1.96%
UO-31
  inhibition at 10 µM: 31.2%
OVCAR-3
  inhibition at 10 µM: -1.64%
HL-60(TB)
  inhibition at 10 µM: -13.1%
OVCAR-8
  inhibition at 10 µM: -6.58%
HOP-92
  inhibition at 10 µM: 9.6%
NCI-H522
  inhibition at 10 µM: -2.13%
NCI/ADR-RES
  inhibition at 10 µM: -8.27%
HT-29
  inhibition at 10 µM: -14.2%
COLO 205
  inhibition at 10 µM: -13.3%
OVCAR-4
  inhibition at 10 µM: -3.9%
A549/ATCC
  inhibition at 10 µM: -7.45%
EKVX
  inhibition at 10 µM: 9.27%
MDA-MB-435
  inhibition at 10 µM: -4.45%
TK-10
  inhibition at 10 µM: -55.4%
CCRF-CEM
  inhibition at 10 µM: 2.96%
HCT-15
  inhibition at 10 µM: -5.46%
SW-620
  inhibition at 10 µM: 2.45%
SK-MEL-2
  inhibition at 10 µM: 0.67%
SN12C
  inhibition at 10 µM: 0.49%
HCC-2998
  inhibition at 10 µM: -20.3%
NCI-H460
  inhibition at 10 µM: -1.1%
SF-295
  inhibition at 10 µM: -4.19%
SF-268
  inhibition at 10 µM: 4.7%
K-562
  inhibition at 10 µM: 2.72%
SK-MEL-5
  inhibition at 10 µM: -19.6%
RXF 393
  inhibition at 10 µM: -5.32%
KM12
  inhibition at 10 µM: 0.14%
LOX IMVI
  inhibition at 10 µM: 3.26%
IGROV1
  inhibition at 10 µM: 16.1%
ACHN
  inhibition at 10 µM: 9.97%
SK-MEL-28
  inhibition at 10 µM: -11%
NCI-H226
  inhibition at 10 µM: 12.8%
MOLT-4
  inhibition at 10 µM: 6.48%
SK-OV-3
  inhibition at 10 µM: 10.1%
UACC-62
  inhibition at 10 µM: 6.75%
MALME-3M
  inhibition at 10 µM: -15.1%
HCT-116
  inhibition at 10 µM: 3.44%
CAKI-1
  inhibition at 10 µM: 21.1%
[1]
  inhibition at 10 µM: -0.095%
NCI-H322M
  inhibition at 10 µM: -0.11%
SR
  inhibition at 10 µM: 13%
HOP-62
  inhibition at 10 µM: 8.27%
M14
  inhibition at 10 µM: 1.68%
